Assay results reported in patent US20250304620A1, “ANTIMICROBIAL PEPTIDE AND APPLICATION THEREOF” (priority 2023, published 2025).
Values after ≈ are worked out from the molar mass of the structure shown. Non-standard residues stand in square brackets, D forms with d. Residues, ends and D or L forms follow the SMILES beside them. dPhe(3,4-Cl2) = N[C@H](Cc1ccc(Cl)c(Cl)c1)C(=O)O; dPhe(4-CF3) = N[C@H](Cc1ccc(C(F)(F)F)cc1)C(=O)O; dPhe(4-Br) = N[C@H](Cc1ccc(Br)cc1)C(=O)O; dPhe(4-Me) = Cc1ccc(C[C@@H](N)C(=O)O)cc1; d2Nal = N[C@H](Cc1ccc2ccccc2c1)C(=O)O; d(hLeu) = CC(C)CC[C@@H](N)C(=O)O; dNle = CCCC[C@@H](N)C(=O)O; dNva = CCC[C@@H](N)C(=O)O

Experiments:
[1] = tested on: Staphylococcus aureus (NRS 384); experiment: microbe, parasite or virus in culture; format: cell-based; conditions: NRS 384
Summary of the method: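 MICs were read against S. aureus strain NRS 384 using twofold serial dilution by CLSI microdilution rules. Levofloxacin and Cbf-K16 were the reference controls, and the test was repeated 5 times in parallel.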

rabbit red blood cells = format: cell-based; conditions: red cells of rabbit, 1 h
[2] = Serum stability assay (residual level by RP-HPLC); conditions: human
[3] = tested on: Staphylococcus aureus ATCC 25923; format: cell-based
Summary of the method: (§1)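 Read-out is MIC, from a CLSI-conformant twofold microdilution series, done in quintuplicate in parallel.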

[4] = tested on: Candida glabrata ATCC 15126; format: cell-based
Summary of the method: as §1

[5] = tested on: Bacillus subtilis ATCC 6633; format: cell-based
Summary of the method: as §1

Candida utilis ATCC 9950 = format: cell-based
Summary of the method: as §1

[6] = tested on: Salmonella typhimurium ATCC 14028; format: cell-based
Summary of the method: as §1

Row | Structure (SMILES) | MIC against Staphylococcus aureus (NRS 384) [1] [µg/mL] | MHC (minimum hemolytic concentration, lowest concentration causing 10% hemolysis) (rabbit red blood cells) [µg/mL] | remaining at 12 h, 0.91 mg/mL [2] [%] | MIC Staphylococcus aureus ATCC 25923 [3] [µg/mL] | MIC Candida glabrata ATCC 15126 [4] [µg/mL] | MIC Bacillus subtilis ATCC 6633 [5] [µg/mL] | MIC Candida utilis ATCC 9950 (Candida utilis ATCC 9950) [µg/mL] | MIC Salmonella typhimurium ATCC 14028 [6] [µg/mL]
1 | CC(=O)N[C@H](CCCNC(=N)N)C(=O)N[C@H](CCCCN)C(=O)N[C@H](CC(C)C)C(=O)N[C@H](CC(C)C)C(=O)N[C@H](Cc1ccc(Cl)c(Cl)c1)C(=O)N[C@H](CCCCN)C(=O)N[C@H](CC(C)C)C(=O)N[C@H](CCCCN)C(=O)N[C@H](Cc1ccc(Cl)c(Cl)c1)C(=O)N[C@H](CCCCN)C(=O)N[C@H](CCCNC(=N)N)C(N)=O [LV-8] (Ac-[dR][dK][dL][dL][dPhe(3,4-Cl2)][dK][dL][dK][dPhe(3,4-Cl2)][dK][dR]-NH2) | 1 (≈ 0.604 µM) | >1000 | 97.6 | 1 (≈ 0.604 µM) | 16 (≈ 9.66 µM) | 2 (≈ 1.21 µM) | 8 (≈ 4.83 µM) | 2 (≈ 1.21 µM)
2 | CC(=O)N[C@H](CCCNC(=N)N)C(=O)N[C@H](CCCCN)C(=O)N[C@H](CC(C)C)C(=O)N[C@H](CC(C)C)C(=O)N[C@H](Cc1ccc(C(F)(F)F)cc1)C(=O)N[C@H](CCCCN)C(=O)N[C@H](CC(C)C)C(=O)N[C@H](CCCCN)C(=O)N[C@H](Cc1ccc(C(F)(F)F)cc1)C(=O)N[C@H](CCCCN)C(=O)N[C@H](CCCNC(=N)N)C(N)=O [LV-9] (Ac-[dR][dK][dL][dL][dPhe(4-CF3)][dK][dL][dK][dPhe(4-CF3)][dK][dR]-NH2) | 1 (≈ 0.605 µM) | >1000 | 97.3 | 2 (≈ 1.21 µM) | 8 (≈ 4.84 µM) | 8 (≈ 4.84 µM) | 16 (≈ 9.67 µM) | 2 (≈ 1.21 µM)
3 | CC(=O)N[C@H](CCCCN)C(=O)N[C@H](CCCCN)C(=O)N[C@H](CC(C)C)C(=O)N[C@H](CC(C)C)C(=O)N[C@H](Cc1ccc(Br)cc1)C(=O)N[C@H](CCCNC(=N)N)C(=O)N[C@H](CC(C)C)C(=O)N[C@H](CCCCN)C(=O)N[C@H](Cc1ccc(Br)cc1)C(=O)N[C@H](CCCNC(=N)N)C(=O)N[C@H](CCCCN)C(N)=O [LV-10] (Ac-[dK][dK][dL][dL][dPhe(4-Br)][dR][dL][dK][dPhe(4-Br)][dR][dK]-NH2) | 1 (≈ 0.597 µM) | >1000 | 98 | 2 (≈ 1.19 µM) | 8 (≈ 4.77 µM) | 2 (≈ 1.19 µM) | 8 (≈ 4.77 µM) | 2 (≈ 1.19 µM)
4 | CC(=O)N[C@H](CCCNC(=N)N)C(=O)N[C@H](CCCCN)C(=O)N[C@H](CC(C)C)C(=O)N[C@H](CC(C)C)C(=O)N[C@H](Cc1ccc(C)cc1)C(=O)N[C@H](CCCCN)C(=O)N[C@H](CC(C)C)C(=O)N[C@H](CCCCN)C(=O)N[C@H](Cc1ccc(C)cc1)C(=O)N[C@H](CCCCN)C(=O)N[C@H](CCCNC(=N)N)C(N)=O [LV-11] (Ac-[dR][dK][dL][dL][dPhe(4-Me)][dK][dL][dK][dPhe(4-Me)][dK][dR]-NH2) | 1 (≈ 0.647 µM) | >1000 | 98.3 | 1 (≈ 0.647 µM) | 16 (≈ 10.3 µM) | 4 (≈ 2.59 µM) | 8 (≈ 5.17 µM) | 2 (≈ 1.29 µM)
5 | CCCC[C@@H](NC(=O)[C@@H](CCCCN)NC(=O)[C@@H](CCCNC(=N)N)NC(C)=O)C(=O)N[C@H](CCCC)C(=O)N[C@H](Cc1ccc2ccccc2c1)C(=O)N[C@H](CCCNC(=N)N)C(=O)N[C@H](CCCC)C(=O)N[C@H](CCCCN)C(=O)N[C@H](Cc1ccc2ccccc2c1)C(=O)N[C@H](CCCNC(=N)N)C(=O)N[C@H](CCCCN)C(N)=O [LV-12] (Ac-[dR][dK][dNle][dNle][d2Nal][dR][dNle][dK][d2Nal][dR][dK]-NH2) | 1 (≈ 0.607 µM) | >1000 | 97.5 | 1 (≈ 0.607 µM) | 4 (≈ 2.43 µM) | 8 (≈ 4.86 µM) | 16 (≈ 9.72 µM) | 4 (≈ 2.43 µM)
6 | CCC[C@@H](NC(=O)[C@@H](CCCCN)NC(=O)[C@@H](CCCNC(=N)N)NC(C)=O)C(=O)N[C@H](CCC)C(=O)N[C@H](Cc1ccc2ccccc2c1)C(=O)N[C@H](CCCNC(=N)N)C(=O)N[C@H](CCC)C(=O)N[C@H](CCCCN)C(=O)N[C@H](Cc1ccc2ccccc2c1)C(=O)N[C@H](CCCNC(=N)N)C(=O)N[C@H](CCCCN)C(N)=O [LV-13] (Ac-[dR][dK][dNva][dNva][d2Nal][dR][dNva][dK][d2Nal][dR][dK]-NH2) | 1 (≈ 0.623 µM) | >1000 | 98.5 | 2 (≈ 1.25 µM) | 8 (≈ 4.99 µM) | 4 (≈ 2.49 µM) | 8 (≈ 4.99 µM) | 2 (≈ 1.25 µM)
7 | CC(=O)N[C@H](CCCNC(=N)N)C(=O)N[C@H](CCCCN)C(=O)N[C@H](CCC(C)C)C(=O)N[C@H](CCC(C)C)C(=O)N[C@H](Cc1ccc2ccccc2c1)C(=O)N[C@H](CCCNC(=N)N)C(=O)N[C@H](CCC(C)C)C(=O)N[C@H](CCCCN)C(=O)N[C@H](Cc1ccc2ccccc2c1)C(=O)N[C@H](CCCNC(=N)N)C(=O)N[C@H](CCCCN)C(N)=O [LV-14] (Ac-[dR][dK][d(hLeu)][d(hLeu)][d2Nal][dR][d(hLeu)][dK][d2Nal][dR][dK]-NH2) | 1 (≈ 0.592 µM) | >1000 | 97.1 | 2 (≈ 1.18 µM) | 4 (≈ 2.37 µM) | 2 (≈ 1.18 µM) | 4 (≈ 2.37 µM) | 4 (≈ 2.37 µM)
8 | CC(=O)N[C@H](CCCNC(=N)N)C(=O)N[C@H](CCCCN)C(=O)N[C@H](C)C(=O)N[C@H](C)C(=O)N[C@H](Cc1ccc2ccccc2c1)C(=O)N[C@H](CCCNC(=N)N)C(=O)N[C@H](C)C(=O)N[C@H](CCCCN)C(=O)N[C@H](Cc1ccc2ccccc2c1)C(=O)N[C@H](CCCNC(=N)N)C(=O)N[C@H](CCCCN)C(N)=O [LV-15] (Ac-[dR][dK][dA][dA][d2Nal][dR][dA][dK][d2Nal][dR][dK]-NH2) | 1 (≈ 0.658 µM) | >1000 | 97.3 | 2 (≈ 1.32 µM) | 4 (≈ 2.63 µM) | 4 (≈ 2.63 µM) | 8 (≈ 5.26 µM) | 2 (≈ 1.32 µM)
9 | CC(=O)N[C@H](CCCNC(=N)N)C(=O)N[C@H](CCCCN)C(=O)N[C@@H](C(=O)N[C@@H](C(=O)N[C@H](Cc1ccc2ccccc2c1)C(=O)N[C@H](CCCNC(=N)N)C(=O)N[C@@H](C(=O)N[C@H](CCCCN)C(=O)N[C@H](Cc1ccc2ccccc2c1)C(=O)N[C@H](CCCNC(=N)N)C(=O)N[C@H](CCCCN)C(N)=O)C(C)C)C(C)C)C(C)C [LV-16] (Ac-[dR][dK][dV][dV][d2Nal][dR][dV][dK][d2Nal][dR][dK]-NH2) | 1 (≈ 0.623 µM) | >1000 | 98.4 | 1 (≈ 0.623 µM) | 16 (≈ 9.97 µM) | 4 (≈ 2.49 µM) | 8 (≈ 4.99 µM) | 2 (≈ 1.25 µM)
10 | CC(=O)N[C@H](CCCCN)C(=O)N[C@H](CCCCN)C(=O)N[C@H](CC(C)C)C(=O)N[C@H](CC(C)C)C(=O)N[C@H](Cc1ccc2ccccc2c1)C(=O)N[C@H](CCCCN)C(=O)N[C@H](CC(C)C)C(=O)N[C@H](CCCCN)C(=O)N[C@H](Cc1ccc2ccccc2c1)C(=O)N[C@H](CCCCN)C(=O)N[C@H](CCCCN)C(N)=O [LV-17] (Ac-[dK][dK][dL][dL][d2Nal][dK][dL][dK][d2Nal][dK][dK]-NH2) | 1 (≈ 0.64 µM) | >1000 | 97.2 | 1 (≈ 0.64 µM) | 8 (≈ 5.12 µM) | 4 (≈ 2.56 µM) | 16 (≈ 10.2 µM) | 4 (≈ 2.56 µM)
